Columns and labels:
[1] = molecular target: T1, XylB-wt2 (Caulobacter vibrioides, UniProt B8H1Z0); test: Substrate specificity: XylB-wt2 activity with mono- and disaccharides (NADH formation at 340 nm); type: biochemical, C. crescentus NA1000
T1 construct: made in house; host or cells: E. coli BL21(DE3)
T1 sequence (B8H1Z0 1-248): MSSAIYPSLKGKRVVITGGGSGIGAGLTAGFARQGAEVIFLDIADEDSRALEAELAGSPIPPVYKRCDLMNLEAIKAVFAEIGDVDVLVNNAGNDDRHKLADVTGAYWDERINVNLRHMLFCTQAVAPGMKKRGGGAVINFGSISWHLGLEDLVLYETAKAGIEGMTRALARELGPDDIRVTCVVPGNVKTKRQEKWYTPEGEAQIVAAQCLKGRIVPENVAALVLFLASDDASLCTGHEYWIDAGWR
Procedure: Xylose dehydrogenase activity in each CFE was evaluated. XylB catalyzes the oxidation of D-xylose with concomitant reduction of its cofactor NAD^+, to yield NADH. Activity can be determined by measuring the formation of NADH by spectrophotometric monitoring. Variations of absorbance at 340 nm are proportional to consumed D-xylose concentration in the reaction (ε^NADH = 6220 cm^-1M^-1). Activity assays were performed at RT and pH 8.0 (Figure 5). Absorbance at 340 nm (OD) was spectrophotometrically recorded along the time in the presence of each CFE sample containing expressed XylB: wt1, wt2, 6His1 and 6His2. […] Volumes of CFE samples used in the assays are shown in brackets, as well as when the sample has been diluted 10 times (dil 1/10). Slopes are proportional to enzyme activity.
The enzyme XylB-wt2 was characterized to determine if it is possible its application in sensitive and reliable D-xylose detection and quantification. […] In order to confirm the substrate specificity, 9 different sugars (7 monosaccharides and 2 disaccharides) were assayed as XylB-wt substrates. […] XylB-wt2 specific activity measured with different mono and disaccharides.

[2] = molecular target: T1, XylB-wt2; test: Steady-state kinetic assays of purified XylB-wt2 for substrates and cofactor; type: biochemical, C. crescentus NA1000; conditions: for activity as cofactor of XylB-wt2: NAD^+ and NADP^+ both assayed, 'the first one' = NAD^+ (NADP^+ gave no activity)
Procedure: (§1) Steady-state kinetic assays for XylB activity were measured in triplicate at 25°C in 96-well plates (total volume of 0.3 mL). Measurements of kinetic parameters for D-xylose were performed with purified XylB-wt2 at eight different D-xylose concentrations and with saturating concentration of NAD^+ (0.5 mM). […] Xylose dehydrogenase activity of purified XylB-wt2 was measured at RT and pH 8.0.
(§2) Kinetic parameters of XylB-wt2 for the cofactor NAD^+ were also calculated.
(§3) The calculated homohexameric quaternary structure should be considered when kinetic parameters are calculated.

[3] = molecular target: T2, 6His-tagged XylB (Caulobacter vibrioides, UniProt B8H1Z0); conditions: data taken from Stephens C, 2007; cited from earlier work
T2 construct: 6His
T2 sequence (B8H1Z0 1-248): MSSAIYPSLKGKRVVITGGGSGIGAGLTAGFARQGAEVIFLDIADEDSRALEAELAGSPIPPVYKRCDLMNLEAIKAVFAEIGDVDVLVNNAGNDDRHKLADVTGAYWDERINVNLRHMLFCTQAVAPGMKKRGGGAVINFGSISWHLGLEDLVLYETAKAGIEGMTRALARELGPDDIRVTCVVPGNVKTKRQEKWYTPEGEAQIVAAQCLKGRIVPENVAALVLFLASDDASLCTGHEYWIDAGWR

[4] = molecular target: T3, Strep-TEV-XylB (Caulobacter vibrioides, UniProt B8H1Z0); conditions: data taken from Toivari M, 2012a; pH 9.0; cited from earlier work
T3 construct: Strep tag; TEV cleavage site
T3 sequence (B8H1Z0 1-248): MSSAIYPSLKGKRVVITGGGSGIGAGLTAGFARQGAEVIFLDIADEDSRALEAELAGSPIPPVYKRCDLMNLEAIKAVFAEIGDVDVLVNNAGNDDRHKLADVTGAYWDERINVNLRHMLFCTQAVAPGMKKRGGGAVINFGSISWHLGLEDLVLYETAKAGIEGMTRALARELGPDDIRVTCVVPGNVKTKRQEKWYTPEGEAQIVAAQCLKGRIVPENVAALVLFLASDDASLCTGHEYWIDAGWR

[5] = substrate: NC(=O)c1ccc[n+]([C@@H]2O[C@H](COP(=O)([O-])OP(=O)(O)OC[C@H]3O[C@@H](n4cnc5c(N)ncnc54)[C@H](O)[C@@H]3O)[C@@H](O)[C@H]2O)c1; test: Steady-state kinetic assays of purified XylB-wt2 for substrates and cofactor; type: biochemical, C. crescentus NA1000; conditions: other: 25°C, pH 8.0, sugars with NAD^+ 0.5 mM, NAD^+ with D-xylose 5 mM
Procedure: as §1, §2, §3

[6] = sugar concentration 100 mM, relative to D-xylose at 5 mM
[7] = 25°C, pH 8.0, sugars with NAD^+ 0.5 mM, NAD^+ with D-xylose 5 mM, enzyme assumed monomer
[8] = considering the enzyme as a homohexameric protein
[9] = sugar concentration 5 mM, relative to D-xylose

D-Ribose
Specific Activity (U/mg) ([1]; sugar concentration 100 mM): 4.4 U/mg
Relative Activity (%) [1, 6]: 15%

O=C(CO)[C@@H](O)[C@H](O)[C@H](O)CO [D-Fructose]
Specific Activity (U/mg) ([1]; sugar concentration 100 mM): 0.0 U/mg
Relative Activity (%) [1, 6]: 0%

OC[C@H]1O[C@H](O[C@H]2[C@H](O)[C@@H](O)C(O)O[C@@H]2CO)[C@H](O)[C@@H](O)[C@@H]1O (mixture of isomers) [Maltose]
Specific Activity (U/mg) ([1]; sugar concentration 100 mM): 0.0 U/mg
Relative Activity (%) [1, 6]: 0%

D-Glucose
Specific Activity (U/mg) ([1]; sugar concentration 100 mM): 3.9 U/mg
Relative Activity (%) [1, 6]: 13%
Vmax (U·mg^-1) [2, 7]: 10.7 ±0.1 U·mg^-1
kcat [2, 7]: 4.78 ± 0.833 s⁻¹
Vmax (U·mg^-1) [2, 8]: 10.7 ±0.1 U·mg^-1

D-Xylose
Km [3]: 760 µM
Vmax (U·mg^-1) [3]: 27.5 U·mg^-1
Specific Activity (U/mg) ([1]; sugar concentration 5 mM): 30.0 U/mg
Relative Activity (%) [1, 9]: 100%
Km ([2]; 25°C, pH 8.0, sugars with NAD^+ 0.5 mM, NAD^+ with D-xylose 5 mM): 41 ± 5 µM
Vmax (U·mg^-1) [2, 7]: 30.2 ±1.0 U·mg^-1
kcat [2, 7]: 13.5 ± 0.583 s⁻¹
catalytic efficiencies (kcat/KM) ratio D-xylose/ D-glucose ([2]; XylB-wt2, pH 8.0): 15000
Km [2, 8]: 41 ± 5 µM
Vmax (U·mg^-1) [2, 8]: 30.2 ±1.0 U·mg^-1
Km [4]: 80 ± 20 µM
kcat [4]: 22.67 ± 1.08 s⁻¹

NC(=O)c1ccc[n+]([C@@H]2O[C@H](COP(=O)([O-])OP(=O)(O)OC[C@H]3O[C@@H](n4cnc5c(N)ncnc54)[C@H](O)[C@@H]3O)[C@@H](O)[C@H]2O)c1 [NAD^+]
Vmax (U·mg^-1) [3]: 20.5 U·mg^-1
activity as cofactor of XylB-wt2 [2]: only displayed activity with the first one
Vmax (U·mg^-1) [2, 8]: 30.1 ±1.0 U·mg^-1
Km [4]: 460 ± 50 µM
kcat [4]: 31 ± 1.08 s⁻¹

L-Arabinose
Specific Activity (U/mg) ([1]; sugar concentration 5 mM): 4.8 U/mg
Relative Activity (%) [1, 9]: 16%

D-Galactose
Specific Activity (U/mg) ([1]; sugar concentration 100 mM): 0.5 U/mg
Relative Activity (%) [1, 6]: 2%

D-Mannose
Specific Activity (U/mg) ([1]; sugar concentration 100 mM): 0.0 U/mg
Relative Activity (%) [1, 6]: 0%

4-O-β-galactopyranosyl-D-xylose [Gaxilose]
Specific Activity (U/mg) ([1]; sugar concentration 100 mM): 0.7 U/mg
Relative Activity (%) [1, 6]: 2%

NC(=O)c1ccc[n+]([C@@H]2O[C@H](COP(=O)([O-])OP(=O)(O)OC[C@H]3O[C@@H](n4cnc5c(N)ncnc54)[C@H](OP(=O)(O)O)[C@@H]3O)[C@@H](O)[C@H]2O)c1 [NADP^+]
activity as cofactor of XylB-wt2 [2]: only displayed activity with the first one

B1: XylB-wt2 (Caulobacter vibrioides NA1000) (protein)
chain: MSSAIYPSLKGKRVVITGGGSGIGAGLTAGFARQGAEVIFLDIADEDSRALEAELAGSPIPPVYKRCDLMNLEAIKAVFAEIGDVDVLVNNAGNDDRHKLADVTGAYWDERINVNLRHMLFCTQAVAPGMKKRGGGAVINFGSISWHLGLEDLVLYETAKAGIEGMTRALARELGPDDIRVTCVVPGNVKTKRQEKWYTPEGEAQIVAAQCLKGRIVPENVAALVLFLASDDASLCTGHEYWIDAGWR
notes: made in house; host or cells: E. coli BL21(DE3)
Km [5]: 78 ± 10 µM
Vmax [5]: 30.1 ±1.0 U·mg^-1
kcat [5]: 13.5 ± 1.08 s⁻¹
kcat/Km [5]: 173080 M⁻¹ s⁻¹

From patent publication EP3394284B1, “ENZYMATIC METHOD FOR THE EVALUATION OF XYLOSE” (Venter Pharma, S.L, priority 2015, dated 2017)
